Measurements from patent US20060166953A1, “Ciclesonide-containing sterile aqueous suspension” (priority 2002, published 2006).

Assay: Chemical stability of drug in the aqueous suspension against autoclaving (recovery rate by HPLC)
Assay type: physicochemical
Procedure: Comparison of Chemical Stability of Drug in the Aqueous Suspension Against Autoclaving
The suspension of Example 1 was put into a 500 mL glass container with a screw cap and sterilized by autoclaving at 121 degrees C. for 20 minutes. Subsequently, after mixing the suspension in the glass container, the ciclesonide concentration was quantified by HPLC.
The recovery rate of ciclesonide after the autoclaving was calculated by taking the ciclesonide concentration before the autoclaving to be 100%. The recovery rates of budesonide and beclomethasone dipropionate after the autoclaving were calculated by the same method.

## CCCC1O[C@@H]2C[C@H]3[C@@H]4CCC5=CC(=O)C=C[C@]5(C)[C@H]4[C@@H](O)C[C@]3(C)[C@]2(C(=O)CO)O1 (stereo partly drawn) [budesonide, 16α,17-[(1RS)-butylidene-bis(oxy)]-11β,21-dihydroxypregna-1,4-diene-3,20-dione]
  Degradation by autoclaving procedure: degraded

## CC(C)C(=O)OCC(=O)[C@@]12O[C@H](C3CCCCC3)O[C@@H]1C[C@H]1[C@@H]3CCC4=CC(=O)C=C[C@]4(C)[C@H]3[C@@H](O)C[C@@]12C [ciclesonide, (11β,16α)-16,17-[cyclohexylmethylenebis(oxy)]-11-hydroxy-21-(2-methyl-1-oxopropoxy)pregna-1,4,-diene-3,20-dione]
  Degradation by autoclaving procedure: not degraded
